Measured values as given in patent US4542137A, “Alkylaminodesoxy-1.4;3.6-dianhydrohexitol nitrates substituted by purine bases and pharmaceutical compositions” (priority 1980, dated 1985).

System: mongrel dogs
Test: circulatory pharmacological effectiveness on narcotised dogs, intravenous
Format: in vivo, dog
[1] = dog i.v. ISDN/9c 1, 1d 0.5 mg/kg, 40 min
[2] = dog i.v. ISDN/9c 1, 1d 0.5 mg/kg, 50 min
[3] = dog i.v. ISDN/9c 1, 1d 0.5 mg/kg, 60 min
[4] = dog i.v. ISDN/9c 1, 1d 0.5 mg/kg, 90 min
[5] = dog i.v. ISDN/9c 1, 1d 0.5 mg/kg, 120 min
[6] = dog i.v. ISDN/9c 1, 1d 0.5 mg/kg, 150 min
[7] = dog i.v. ISDN/9c 1, 1d 0.5 mg/kg, 180 min
[8] = dog i.v., before administration (v)

## CN(CCCn1cnc2c1c(=O)n(C)c(=O)n2C)[C@H]1CO[C@H]2[C@@H]1OC[C@@H]2O[N+](=O)[O-] [Example 9c, 5-[N-Methyl-N-(3-theophyllin-7-ylpropyl)-amino]-5-desoxy-1.4;3.6-dianhydro-L-iditol 2-nitrate]
[1]
  BFFem: blood flow in the A. femoralis referred to 20 kg body weight: 44.2 mL/min
  HLL: heart capacity left, referred to 20 kg body weight: 0.60 W
  HLR: heart capacity right, referred to 20 kg body weight: 63.2 mW
  HZV: heart minute volume, referred to 20 kg body weight: 2.71 L/min
  LVEDP: end diastolic pressure in the left ventricle: 5.62 mm.Hg
  SV: beat volume, referred to 20 kg body weight: 24.9 mL
  WAP: pulmonalis resistance, referred to 20 kg body weight: 0.30 U
  WFem: moralis resistance, referred to 20 kg body weight: 0.32 KU
  WTP: total peripheral resistance, referred to 20 kg body weight: 5.05 U
  dp/dt: rate of pressure increase in the left ventricle: 2203.1 mm.Hg/sec
[2]
  APdiast: diastolic aorta pressure: 88.2 mm.Hg
  APsyst: systolic aorta pressure: 142.5 mm.Hg
  BFFem: blood flow in the A. femoralis referred to 20 kg body weight: 26.6 mL/min
  HF: heart frequency: 105.5
  HLL: heart capacity left, referred to 20 kg body weight: 0.61 W
  HLR: heart capacity right, referred to 20 kg body weight: 61.7 mW
  HZV: heart minute volume, referred to 20 kg body weight: 2.68 L/min
  LVEDP: end diastolic pressure in the left ventricle: 6.19 mm.Hg
  SV: beat volume, referred to 20 kg body weight: 25.5 mL
  WFem: moralis resistance, referred to 20 kg body weight: 0.31 KU
  WTP: total peripheral resistance, referred to 20 kg body weight: 5.24 U
  dp/dt: rate of pressure increase in the left ventricle: 2165.6 mm.Hg/sec
[3]
  APdiast: diastolic aorta pressure: 88.2 mm.Hg
  APsyst: systolic aorta pressure: 144.7 mm.Hg
  BFFem: blood flow in the A. femoralis referred to 20 kg body weight: 45.8 mL/min
  HF: heart frequency: 103.2
  HLL: heart capacity left, referred to 20 kg body weight: 0.59 W
  HLR: heart capacity right, referred to 20 kg body weight: 59.1 mW
  HZV: heart minute volume, referred to 20 kg body weight: 2.59 L/min
  SV: beat volume, referred to 20 kg body weight: 25.1 mL
  WAP: pulmonalis resistance, referred to 20 kg body weight: 0.27 U
  WFem: moralis resistance, referred to 20 kg body weight: 0.32 KU
  WTP: total peripheral resistance, referred to 20 kg body weight: 5.48 U
  dp/dt: rate of pressure increase in the left ventricle: 2109.4 mm.Hg/sec
[4]
  APdiast: diastolic aorta pressure: 90.9 mm.Hg
  APsyst: systolic aorta pressure: 148.1 mm.Hg
  BFFem: blood flow in the A. femoralis referred to 20 kg body weight: 41.7 mL/min
  HF: heart frequency: 98.0
  HLL: heart capacity left, referred to 20 kg body weight: 0.56 W
  HLR: heart capacity right, referred to 20 kg body weight: 59.2 mW
  HZV: heart minute volume, referred to 20 kg body weight: 2.42 L/min
  SV: beat volume, referred to 20 kg body weight: 24.8 mL
  WAP: pulmonalis resistance, referred to 20 kg body weight: 0.33 U
  WFem: moralis resistance, referred to 20 kg body weight: 0.36 KU
  WTP: total peripheral resistance, referred to 20 kg body weight: 6.00 U
  dp/dt: rate of pressure increase in the left ventricle: 1987.5 mm.Hg/sec
[5]
  APdiast: diastolic aorta pressure: 90.9 mm.Hg
  APsyst: systolic aorta pressure: 150.0 mm.Hg
  BFFem: blood flow in the A. femoralis referred to 20 kg body weight: 39.9 mL/min
  HF: heart frequency: 96.7
  HLL: heart capacity left, referred to 20 kg body weight: 0.55 W
  HLR: heart capacity right, referred to 20 kg body weight: 60.8 mW
  HZV: heart minute volume, referred to 20 kg body weight: 2.39 L/min
  LVEDP: end diastolic pressure in the left ventricle: 7.73 mm.Hg
  SV: beat volume, referred to 20 kg body weight: 24.7 mL
  WAP: pulmonalis resistance, referred to 20 kg body weight: 0.35 U
  WFem: moralis resistance, referred to 20 kg body weight: 0.38 KU
  WTP: total peripheral resistance, referred to 20 kg body weight: 6.07 U
  dp/dt: rate of pressure increase in the left ventricle: 1837.5 mm.Hg/sec
[6]
  APdiast: diastolic aorta pressure: 88.7 mm.Hg
  APsyst: systolic aorta pressure: 148.7 mm.Hg
  BFFem: blood flow in the A. femoralis referred to 20 kg body weight: 39.0 mL/min
  HF: heart frequency: 98.2
  HLL: heart capacity left, referred to 20 kg body weight: 0.54 W
  HLR: heart capacity right, referred to 20 kg body weight: 64.4 mW
  HZV: heart minute volume, referred to 20 kg body weight: 2.38 L/min
  LVEDP: end diastolic pressure in the left ventricle: 7.87 mm.Hg
  SV: beat volume, referred to 20 kg body weight: 24.3 mL
  WAP: pulmonalis resistance, referred to 20 kg body weight: 0.40 U
  WFem: moralis resistance, referred to 20 kg body weight: 0.37 KU
  WTP: total peripheral resistance, referred to 20 kg body weight: 5.92 U
  dp/dt: rate of pressure increase in the left ventricle: 1809.4 mm.Hg/sec
[7]
  APdiast: diastolic aorta pressure: 87.2 mm.Hg
  APsyst: systolic aorta pressure: 148.1 mm.Hg
  BFFem: blood flow in the A. femoralis referred to 20 kg body weight: 42.8 mL/min
  HF: heart frequency: 100.0
  HLL: heart capacity left, referred to 20 kg body weight: 0.55 W
  HLR: heart capacity right, referred to 20 kg body weight: 67.5 mW
  HZV: heart minute volume, referred to 20 kg body weight: 2.47 L/min
  LVEDP: end diastolic pressure in the left ventricle: 7.87 mm.Hg
  SV: beat volume, referred to 20 kg body weight: 24.8 mL
  WAP: pulmonalis resistance, referred to 20 kg body weight: 0.41 U
  WFem: moralis resistance, referred to 20 kg body weight: 0.33 KU
  WTP: total peripheral resistance, referred to 20 kg body weight: 5.61 U
  dp/dt: rate of pressure increase in the left ventricle: 1743.7 mm.Hg/sec
[8]
  APdiast: diastolic aorta pressure: 78.7 mm.Hg
  APsyst: systolic aorta pressure: 147.2 mm.Hg
  BFFem: blood flow in the A. femoralis referred to 20 kg body weight: 48.0 mL/min
  HF: heart frequency: 102.5
  HLL: heart capacity left, referred to 20 kg body weight: 0.56 W
  HLR: heart capacity right, referred to 20 kg body weight: 63.08 mW
  HZV: heart minute volume, referred to 20 kg body weight: 2.62 L/min
  PAP: average pressure in the A. pulmonalis: 13.6 mm.Hg
  WFem: moralis resistance, referred to 20 kg body weight: 0.29 KU
  WTP: total peripheral resistance, referred to 20 kg body weight: 5.15 U
  dp/dt: rate of pressure increase in the left ventricle: 1837.5 mm.Hg/sec
dog, in vivo
  BFFem: blood flow in the A. femoralis referred to 20 kg body weight: 41.9 mL/min
dog, in vivo, iv
  PRV: pressure in the right atrium: 3.0
iv
  LVEDP: end diastolic pressure in the left ventricle: 7.60 mm.Hg
  SV: beat volume, referred to 20 kg body weight: 25.9 mL
  WAP: pulmonalis resistance, referred to 20 kg body weight: 0.29 U
